The numbers were not newly measured in patent publication US20240315993A1, “ANTIPARASITIC COMPOUNDS” (Intervet Inc., priority 2021, published 2024), which cites them from elsewhere.

The subject of data set [1] is Beet Armyworm (Spodoptera exigua). To be noted: 128-well diet tray, average of eight wells, cited from earlier work; for Test A: Bioassay on BAW, percent mortality rating: Beet Armyworm second instar larvae, 50 μg/cm^2, five to seven days.
Data set [2] deals with Cabbage Looper (Trichoplusia ni). The conditions noted are these: 128-well diet tray, average of eight wells, cited from earlier work; for Test B: Bioassay on CL, percent mortality rating: Cabbage Looper second instar larvae, 50 μg/cm^2, five to seven days.
Data set [3] relates to Yellow Fever Mosquito (Aedes aegypti). To be noted: 96-well plate, cited from earlier work; for Test C: Bioassay on Yellow Fever Mosquito, mortality rating: Aedes aegypti larvae about 1 day old, scored after 3 days.
The mark [4] stands for this setting: 50 μg/cm^2 on artificial diet, second instar larvae, 5-7 days.

Consider `O=C(Nc1nc2ccccc2o1)c1cc(NC(=O)C2C(c3cc(Cl)cc(Cl)c3)C2(Cl)Cl)ccc1Cl` (stereo not drawn) [c26], for which the “Test A: Bioassay on BAW, percent mortality rating” value in data set [1] is listed as “A (50-100)”. For the same compound, the “Test B: Bioassay on CL, percent mortality rating” value (“Test B … percent mortality rating” for short) in data set [2] is given as “A (50-100)”. In data set [3], the “Test C: Bioassay on Yellow Fever Mosquito, mortality rating” value (“Test C: Bioassay” below) is reported as “A (80-100)”.
In the case of `Cc1cc(N(C)C(=O)OC(C)(C)C)ccc1N(C)C(=O)c1cc(NC(=O)C2C(c3cc(Cl)cc(Cl)c3)C2(Cl)Cl)ccc1Cl` (stereo not drawn) [c43], the “Test A: Bioassay on BAW, percent mortality rating” value in data set [1] is on record as “A (50-100)”. Further, the “Test B … percent mortality rating” value in data set [2] was “A (50-100)”. For the same compound, the “Test C: Bioassay” value in data set [3] is “D (No activity noticed in this bioassay)”.
Regarding `CC(C)(C)OC(=O)n1ccc2cc(NC(=O)c3cc(NC(=O)C4C(c5cc(Cl)cc(Cl)c5)C4(Cl)Cl)ccc3Cl)ccc21` (stereo not drawn) [c68], the “Test A: Bioassay on BAW, percent mortality rating” value in data set [1] is recorded as “A (50-100)”. Also, in data set [2], the “Test B … percent mortality rating” value was “A (50-100)”. For the same compound, the “Test C: Bioassay” value in data set [3] is “D (No activity noticed in this bioassay)”.
Take `CS(=NC#N)c1ccc(NC(=O)c2cc(NC(=O)C3C(c4cc(Cl)cc(Cl)c4)C3(Cl)Cl)ccc2Cl)cc1` (stereo not drawn) [c92]: the “Test A: Bioassay on BAW, percent mortality rating” value in data set [1] is on record as “A (50-100)”. Besides, in data set [2], the “Test B … percent mortality rating” value is reported as “A (50-100)”. Further, the “Test C: Bioassay” value in data set [3] is “A (80-100)”.
In the case of `O=C(Nc1ccccc1)c1cc(NC(=O)[C@H]2[C@H](c3ccc(F)c(Cl)c3)C2(Cl)Cl)cc(C(F)(F)F)c1Cl` [c121], the “Test A: percent mortality of Beet Armyworm (BAW) larvae, rating” value in data set [1] (setting [4]) is “A (50-100)”. The “Test B: percent mortality of Cabbage Looper (CL) larvae, rating” value in data set [2] (setting [4]) is given as “A (50-100)”. Further, the “Test C: mortality of Yellow Fever Mosquito larvae, rating” value in data set [3] (about 1 day-old larvae, graded after 3 days at room temperature) is “A (80-100)”.
As to `O=C(Nc1ccc2[nH]c(-c3ccccc3)cc2c1)c1cc(NC(=O)C2C(c3cc(Cl)cc(Cl)c3)C2(Cl)Cl)ccc1Cl` (stereo not drawn) [c94], the “Test A: Bioassay on BAW, percent mortality rating” value in data set [1] is recorded as “A (50-100)”. Moreover, the “Test B … percent mortality rating” value in data set [2] is on record as “A (50-100)”. For the same compound, the “Test C: Bioassay” value in data set [3] is listed as “A (80-100)”.
For `CN1C(=O)CCc2cc(NC(=O)c3cc(NC(=O)C4C(c5cc(Cl)cc(Cl)c5)C4(Cl)Cl)ccc3Cl)ccc21` (stereo not drawn) [c86], the “Test A: Bioassay on BAW, percent mortality rating” value in data set [1] is reported as “A (50-100)”. The “Test B … percent mortality rating” value in data set [2] is given as “A (50-100)”. The “Test C: Bioassay” value in data set [3] is “A (80-100)”.
As for `O=C(Nc1cnc2cc[nH]c2c1)c1cc(NC(=O)C2C(c3cc(Cl)cc(Cl)c3)C2(Cl)Cl)ccc1Cl` (stereo not drawn) [c14], in data set [1], the “Test A: Bioassay on BAW, percent mortality rating” value is “A (50-100)”. For the same compound, the “Test B … percent mortality rating” value in data set [2] was “A (50-100)”. For the same compound, the “Test C: Bioassay” value in data set [3] was “B (More than 0 - Less than 80)”.
In the case of `Cc1cc(N2C(=O)C=CC2=O)ccc1NC(=O)c1cc(NC(=O)C2C(c3cc(Cl)cc(Cl)c3)C2(Cl)Cl)ccc1Cl` (stereo not drawn) [c65], the “Test A: Bioassay on BAW, percent mortality rating” value in data set [1] was “A (50-100)”. Besides, the “Test B … percent mortality rating” value in data set [2] is given as “A (50-100)”. Besides, in data set [3], the “Test C: Bioassay” value is on record as “A (80-100)”.
As for `N#Cc1cc(C(F)(F)F)ccc1NC(=O)c1cc(NC(=O)C2C(c3cc(Cl)cc(Cl)c3)C2(Cl)Cl)ccc1Cl` (stereo not drawn) [c53], the “Test A: Bioassay on BAW, percent mortality rating” value in data set [1] is “A (50-100)”. The “Test B … percent mortality rating” value in data set [2] is listed as “A (50-100)”. Also, the “Test C: Bioassay” value in data set [3] was “A (80-100)”.
With `O=C(Nc1ccc2c(c1)CCN2)c1cc(NC(=O)C2C(c3cc(Cl)cc(Cl)c3)C2(Cl)Cl)ccc1Cl` (stereo not drawn) [c99], in data set [1], the “Test A: Bioassay on BAW, percent mortality rating” value was “A (50-100)”. In addition, in data set [2], the “Test B … percent mortality rating” value is reported as “A (50-100)”. Besides, the “Test C: Bioassay” value in data set [3] is listed as “A (80-100)”.
Consider `Cc1cc(N(C)C(=O)OC(C)(C)C)ccc1N(C)C(=O)c1cc(NC(=O)C2C(c3cc(Cl)c(Cl)c(Cl)c3)C2(Cl)Cl)ccc1Cl` (stereo not drawn) [c44], for which the “Test A: Bioassay on BAW, percent mortality rating” value in data set [1] is listed as “A (50-100)”. For the same compound, in data set [2], the “Test B … percent mortality rating” value is recorded as “D (No activity noticed in this bioassay)”. Moreover, the “Test C: Bioassay” value in data set [3] is “D (No activity noticed in this bioassay)”.
